Consider three compounds from patent publication US20260365684A1, “PHYTOSPHINGOSINE-3,4-CYCLICPHOSPHATE COMPOUND AND PHARMACEUTICAL COMPOSITION COMPRISING THE SAME” (AXCESO BIOPHARMA CO., LTD., priority 2022, published 2026).

Assay [1] has as its system tyrosine hydroxylase (TH). As to the kind of experiment: Tyrosine hydroxylase expression in differentiated SH-SY5Y dopaminergic neurons by western blot. The class given is cell-based, human. The conditions noted are these: differentiated dopaminergic neurons treated with rotenone (RT); FIG. 6. The procedure:
(§1) To analyze the effect on the expression of tyrosine hydroxylase (TH) and α-synuclein as neuron-specific proteins, western blot was performed.
(§2) SH-SY5Y cell line was treated with retinoic acid and 12-O-tetradecanoylphorbol-13-acetate (TPA) to induce differentiation into TH-secreting neurons for 6 days.
(§3) Differentiated dopaminergic neurons were lysed in PRO-PREP (Intronbio), a cell lysis solution containing protease inhibitor cocktail (Gendepot), and electrophoresed in 10% SDS polyacrylamide gels at 20 μg/well. Transfer was performed using PVDF (Merck millipore) as a membrane, and tyrosine hydroxylase antibody, «-synuclein antibody (Cell signaling), and β-actin antibody (Santa Cruz) were used for reaction for more than 2 hours. Protein expression was detected by staining with ECL substrate (Biorad) for development and graphed using the image J program.
In general terms: Immunoblotting shows a protein as a band on a membrane.

For another assay, the system named is α-synuclein. Description: α-synuclein expression in differentiated SH-SY5Y dopaminergic neurons by western blot. The class given is cell-based, human. The note with it: differentiated dopaminergic neurons treated with rotenone (RT); FIG. 6. The procedure:
as §1, §2, §3

The next assay concerns C57BL/6 mice. Description: Survival in sepsis induced by cecal ligation and puncture (CLP). Format: in vivo, mouse. The conditions noted are these: 100 ng/mouse (5 μg/kg) at 6 and 16 hours after CLP; FIG. 8. The procedure: C57BL/6 mice aged 7-8 weeks were purchased from Jabio (Suwon, Gyeonggi-do) and sepsis was induced by cecal ligation and puncture (CLP).
Specifically, after anesthesia using 150 mg/kg of ketamine and 17.5 mg/kg of rompun, an abdominal incision of 1-2 cm was made to expose the cecum to induce sepsis. The cecum was ligated with 6-0 silk sutures at the distal end of the ileocecal valve, and a puncture was made with an 18-gauge needle. The perforated cecum was gently squeezed to push out 1-2 cm of feces, and the cecum was then retracted back into the abdominal cavity. The abdomen was then closed and pre-warmed normal saline (2.5 mL/100 g body weight) was injected into the mouse abdominal cavity immediately after the procedure. 6 and 16 hours after CLP treatment, the compound of formula (1a-1) was dissolved in phosphate buffered saline (PBS) and injected intravenously at 100 ng/mouse (5 μg/kg), and survival was examined for 10 days. […] In addition, as a drug-negative control, survival was examined in mice that received only PBS after CLP treatment.
For comparison, we also examined the survival of a control group treated with fingolimod (FTY720), a known S1P modulator, instead of the compound of formula (1a-1) under the same conditions.

In the next assay the test system is SIRT1. The note with it: known value; read-out: EC50 as SIRT1 activator; cited from earlier work.

In the case of `C=C(C)[C@H]1Cc2c(ccc3c2O[C@@H]2COc4cc(OC)c(OC)cc4[C@@H]2C3=O)O1` [rotenone, reference compound], in assay [1], the “expression of TH” value is given as “the expression of TH is decreased”. Besides, in the assay on α-synuclein, the “expression of α-synuclein” value is “the expression of α-synuclein is increased”. Take `CCCCCCCCc1ccc(CCC(N)(CO)CO)cc1` [FTY720, fingolimod, reference compound]: in the assay with C57BL/6 mice, the survival entry was “did not improve survival”. Take `Oc1ccc(C=Cc2cc(O)cc(O)c2)cc1` [resveratrol]: the concentration for a half-maximal effect (EC50) in the assay with SIRT1 is […].

One may read the EC50 as the midpoint of the concentration-response curve.
